Source: PubChem BioAssay (NCI)
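Cells were grown in 96-well plates and exposed to each compound for 48 hours at five concentrations; endpoints were interpolated linearly between bracketing concentrations, or set to the highest concentration if not reached. At the GI50, growth is halved. TGI: total growth inhibition.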

Experiments:
Experiment in all cases: NCI tumour cell line growth inhibition, 48 h
786-0 renal = system: 786-0 renal
A498 renal = system: A498 renal
A549 NSCLC = system: A549 NSCLC
ACHN renal = system: ACHN renal
BT-549 breast = system: BT-549 breast
CAKI-1 renal = system: CAKI-1 renal
CCRF-CEM leukemia = system: CCRF-CEM leukemia
COLO 205 colon = system: COLO 205 colon
DU-145 prostate = system: DU-145 prostate
EKVX NSCLC = system: EKVX NSCLC
HCC-2998 colon = system: HCC-2998 colon
HCT-116 colon = system: HCT-116 colon
HCT-15 colon = system: HCT-15 colon
HL-60(TB) leukemia = system: HL-60(TB) leukemia
HOP-62 NSCLC = system: HOP-62 NSCLC
HOP-92 NSCLC = system: HOP-92 NSCLC
HS 578T breast = system: HS 578T breast
HT29 colon = system: HT29 colon
IGROV1 ovarian = system: IGROV1 ovarian
K-562 leukemia = system: K-562 leukemia
KM12 colon = system: KM12 colon
LOX IMVI melanoma = system: LOX IMVI melanoma
M14 melanoma = system: M14 melanoma
MALME-3M melanoma = system: MALME-3M melanoma
MCF7 breast = system: MCF7 breast
MDA-MB-231 breast = system: MDA-MB-231 breast
MDA-MB-435 = system: MDA-MB-435
MDA-MB-468 breast = system: MDA-MB-468 breast
MOLT-4 leukemia = system: MOLT-4 leukemia
NCI-H226 lung = system: NCI-H226 lung

## CC1(c2ccccc2)NC(=O)N(CC(=O)Nc2ccc(C(=O)/C=C/c3ccccc3)cc2)C1=O (centres undefined)
786-0 renal
  GI50: 13.7 µM
  TGI: 27.4 µM
A498 renal
  GI50: 14.2 µM
  TGI: 28.7 µM
A549 NSCLC
  GI50: 10.8 µM
  TGI: 27.7 µM
ACHN renal
  GI50: 13.2 µM
  TGI: 31 µM
BT-549 breast
  GI50: 8.21 µM
  TGI: 21.6 µM
CAKI-1 renal
  GI50: 11.5 µM
  TGI: 29.6 µM
CCRF-CEM leukemia
  GI50: 5.76 µM
  TGI: 41.3 µM
COLO 205 colon
  GI50: 14.2 µM
  TGI: 29.6 µM
DU-145 prostate
  GI50: 13.7 µM
  TGI: 28.9 µM
EKVX NSCLC
  GI50: 7.62 µM
  TGI: 33 µM
HCC-2998 colon
  GI50: 4.25 µM
  TGI: 14.3 µM
HCT-116 colon
  GI50: 1.63 µM
  TGI: 3.35 µM
HCT-15 colon
  GI50: 14.2 µM
  TGI: 35.3 µM
HL-60(TB) leukemia
  GI50: 12.3 µM
  TGI: 68.3 µM
HOP-62 NSCLC
  GI50: 18.2 µM
  TGI: 53.5 µM
HOP-92 NSCLC
  GI50: 9.31 µM
  TGI: 69.2 µM
HS 578T breast
  GI50: 20.5 µM
  TGI: > 100 µM
HT29 colon
  GI50: 7.82 µM
  TGI: 24.6 µM
IGROV1 ovarian
  GI50: 12.9 µM
  TGI: 27.7 µM
K-562 leukemia
  GI50: 4.03 µM
  TGI: > 100 µM
KM12 colon
  GI50: 4.94 µM
  TGI: 26.8 µM
LOX IMVI melanoma
  GI50: 7.56 µM
  TGI: 20.8 µM
M14 melanoma
  GI50: 9.54 µM
  TGI: 22.7 µM
MALME-3M melanoma
  GI50: 15 µM
  TGI: 38.9 µM
MCF7 breast
  GI50: 3.15 µM
  TGI: 14 µM
MDA-MB-231 breast
  GI50: 11.7 µM
  TGI: 30.9 µM
MDA-MB-435
  GI50: 3.11 µM
  TGI: 13.5 µM
MDA-MB-468 breast
  GI50: 5.7 µM
  TGI: 20.6 µM
MOLT-4 leukemia
  GI50: 7.1 µM
  TGI: 57.1 µM
NCI-H226 lung
  GI50: 15.8 µM
